Measured values as given in patent US6737064B2, “Method for the diagnosis of neoplastic tissue comprising administering a vasopermeability enhancing peptide of human interleukin-2” (The University of Southern California, priority 1996, dated 2004).

System: Raji tumor-bearing nude mice
Assay: In vivo vasopermeability / biodistribution study, Raji lymphoma model (tumor uptake of 125I-Lym-1 F(ab')2 after pre-treatment)
Experimental: The Raji lymphoma cell line was used to produce heterotransplants in 6-week-old female nude mice by the subcutaneous injection of a 0.2 ml inoculum consisting of 4×10^7 Raji cells and 4×10^6 human fetal fibroblast feeder cells in the left thigh. Three days prior to injection, the mice were irradiated with 400 rads using a cesium irradiator to ensure a high take rate of the implanted cells. The tumors were grown for 14-18 days until they grew to approximately 1 cm in diameter.
To test the relative effects of the immunoconjugates on the biodistribution and tumor uptake of Lym-1 or TNT-1 in tumor-bearing mice, separate groups of 4-5 mice were given intravenous injections of 30 μg of antibody alone or antibody conjugate. At 2.5 hr after injection, each group received 50 μCi of ^125I-labeled Lym-1 or TNT-1 F(ab′)2 fragment as tracer.
All animals were sacrificed 72 hr later, by sodium pentobarbital overdose, for biodistribution analysis. Various organs, blood, and tumor were removed, weighed, and samples were counted in a gamma counter. For each mouse, data were expressed as tumor:organ ratio (cpm per gram tumor/cpm per gram organ) and percent injected dose/gram (% ID/g).

Substance	Vasopermeability (% Lym-1/IL-2) (i.v., enhanced Lym-1 uptake relative to Lym-1/IL-2 conjugate, 30-40 pM of peptide per assay)	Vasopermeability activity (in words) (intravenous administration)
3C: synthetic IL-2 peptide, amino acids 22-58 (SEQ ID NO:1), permeability enhancing peptide (EMILNGINNYKNPKLTRMLTFKFYMPKKATELKHLQC; listed as Homo sapiens) [Fragment 3C]	0 % Lym-1/IL-2	
E6: synthetic peptide fragment of human IL-2, amino acids 22-38 (QMILNGINNYKNPKLTR; UniProt P60568 42-58, looked up, fragment) [Fragment E6]		no activity
